The results in this text go back to patent EP2589383A1 (Max-Planck-Gesellschaft zur Förderung der Wissenschaften …, priority 2011, dated 2013).

The target in this experiment is T1, FLAG-mTOR (Homo sapiens, UniProt P42345).
T1 construct: expressed in transfected cells; host or cells: HEK-293
Nature of the experiment: Co-immunoprecipitation of FLAG-mTOR and endogenous FKBPs in HEK-293 cells. Format: cell-based. The following applies: overexpressed mTOR, 25 nM, 30 minutes prior to lysis. As for the experimental part:
Next mammalian cells were analyzed for a rapamycin-mediated interaction of mTOR and FKBPs. Co-Immunoprecipitation experiments were performed. In detail, the mammalian expression vector pcDNA-3, containing a FLAG-tagged mTOR cDNA sequence, was introduced into HEK-293 cells by standard Lipofectamine transfection. After 48 h, cells were washed twice with TBS and lysed in lysis buffer (40 mM Hepes, pH 7.5; 120 mM NaCl; 1 mM EDTA; 10 mM pyrophosphate; 10 mM glycerophosphate; 0.5 mM orthovanadate; 50 mM NaF; 0.3% (w/v) CHAPS / 1% (v/v) Triton-100; 1% (v/v) protease inhibitor mix) by shaking at 1000 rpm at 4°C for 20 minutes. After 20 minutes of centrifugation at 14.000 rpm and 4°C, the supernatant was collected, and total protein was determined by Bradford Assay. […] Beads were pelleted and washed 4 times with lysis buffer. Finally, beads were directly boiled after addition of an equal amount of SDS sample buffer for 5 minutes. Extracts were subjected to SDS-PAGE and immunoblotting.

`C=CC[C@@H]1/C=C(\C)C[C@H](C)C[C@H](OC)[C@H]2O[C@@](O)(C(=O)C(=O)N3CCCC[C@H]3C(=O)O[C@H](/C(C)=C/[C@@H]3CC[C@@H](O)[C@H](OC)C3)[C@H](C)[C@@H](O)CC1=O)[C@H](C)C[C@@H]2OC` [Tacrolimus]: the “interaction of mTOR with endogenous FKBP12, FKBP51 and FKBP52 (co-precipitation)” value was “No interaction was observed”.
